Results as given in ChEMBL document CHEMBL3885861, “Open TG-GATES”.

Organism: Rattus norvegicus
Assay: Open TG-GATES - Regimen: Single
Format: toxicity, organism-based, Sprague-Dawley
Design: regimen Single, gender Male, age 6 weeks
Conditions: in vivo, iv, 30 mg/kg, route intravenous injection, dose level Middle; for APTT / Bas / Eos / Fbg / Hb / Ht / Lym / MCV / Mono / PT / Plat / RBC / Ret / WBC / MCHC / Neu: tissue Blood; for KIDNEY_L / KIDNEY_R / KIDNEY_TOTAL: tissue Kidney; for LIVER: tissue Liver; for ALP / ALT / BUN / CRE / DBIL / GLC / IP / K / LDH / PL / RALB / TBIL / TC / TG / TP / gamma-GTP / AST / Na: tissue Plasma

CARBOPLATIN
APTT (3 h): 23.3 s
Bas (3 h): 0%
Eos (3 h): 1%
Fbg (3 h): 273.2 mg/dL
Hb (3 h): 13 g/dL
Ht (3 h): 40.3%
Lym (3 h): 81.8%
MCV (3 h): 63.6 fL
Mono (3 h): 2.4%
PT (3 h): 15.6 s
Plat (3 h): 123.8 x10_4/uL
RBC (3 h): 633.4 x10_4/ul
Ret (3 h): 5.6%
WBC (3 h): 77.3 x10_2/uL
KIDNEY_L (3 h): 0.9 g
KIDNEY_R (3 h): 0.9 g
KIDNEY_TOTAL (3 h): 1.9 g
LIVER (3 h): 9.5 g
ALP (3 h): 1595 IU/L
ALT (3 h): 41.4 IU/L
BUN (3 h): 11 mg/dL
CRE (3 h): 0.2 mg/dL
DBIL (3 h): 0 mg/dL
GLC (3 h): 175 mg/dL
IP (3 h): 8.6 mg/dL
K (3 h): 4 meq/L
LDH (3 h): 183.4 IU/L
PL (3 h): 126.6 mg/dL
RALB (3 h): 3 g/dL
TBIL (3 h): 0.014 mg/dL
TC (3 h): 67 mg/dL
TG (3 h): 75 mg/dL
TP (3 h): 5.4 g/dL
gamma-GTP (3 h): 1.2 IU/L
APTT (6 h): 22.6 s
Bas (6 h): 0%
Eos (6 h): 0.8%
Fbg (6 h): 273.4 mg/dL
Hb (6 h): 12.8 g/dL
Ht (6 h): 39.7%
Lym (6 h): 77.4%
MCHC (6 h): 32.2%
MCV (6 h): 63.8 fL
Mono (6 h): 4%
Neu (6 h): 16.6%
PT (6 h): 15.9 s
Plat (6 h): 120 x10_4/uL
RBC (6 h): 623.2 x10_4/ul
Ret (6 h): 6.3%
WBC (6 h): 102.3 x10_2/uL
KIDNEY_L (6 h): 0.9 g
KIDNEY_R (6 h): 0.9 g
KIDNEY_TOTAL (6 h): 1.8 g
LIVER (6 h): 8.7 g
ALP (6 h): 1276.8 IU/L
ALT (6 h): 42 IU/L
AST (6 h): 77.8 IU/L
CRE (6 h): 0.2 mg/dL
DBIL (6 h): 0 mg/dL
GLC (6 h): 174.6 mg/dL
IP (6 h): 9.6 mg/dL
K (6 h): 4.4 meq/L
Na (6 h): 139.4 meq/L
PL (6 h): 126 mg/dL
RALB (6 h): 2.9 g/dL
TBIL (6 h): 0.012 mg/dL
TC (6 h): 73.4 mg/dL
TG (6 h): 68.6 mg/dL
TP (6 h): 5.3 g/dL
gamma-GTP (6 h): 1 IU/L
TERMINAL_BW (9 h): 197.2 g
APTT (9 h): 24.3 s
Bas (9 h): 0%
Eos (9 h): 0.6%
Fbg (9 h): 280.2 mg/dL
Hb (9 h): 12.8 g/dL
Ht (9 h): 39.6%
Lym (9 h): 72.2%
MCHC (9 h): 32.4%
MCV (9 h): 62 fL
Mono (9 h): 2.4%
Neu (9 h): 24%
PT (9 h): 15.9 s
Plat (9 h): 119 x10_4/uL
RBC (9 h): 638.6 x10_4/ul
Ret (9 h): 5.9%
WBC (9 h): 68.8 x10_2/uL
KIDNEY_L (9 h): 0.9 g
KIDNEY_R (9 h): 1 g
KIDNEY_TOTAL (9 h): 1.9 g
LIVER (9 h): 7.9 g
ALP (9 h): 1295.4 IU/L
ALT (9 h): 38.8 IU/L
AST (9 h): 81 IU/L
BUN (9 h): 10 mg/dL
CRE (9 h): 0.1 mg/dL
DBIL (9 h): 0 mg/dL
GLC (9 h): 173.6 mg/dL
IP (9 h): 9.7 mg/dL
K (9 h): 4.3 meq/L
LDH (9 h): 182.2 IU/L
Na (9 h): 139.6 meq/L
PL (9 h): 118.8 mg/dL
RALB (9 h): 2.9 g/dL
TBIL (9 h): 0.014 mg/dL
TC (9 h): 63 mg/dL
TG (9 h): 55 mg/dL
TP (9 h): 5.4 g/dL
gamma-GTP (9 h): 1.2 IU/L
TERMINAL_BW (24 h): 208.3 g
APTT (24 h): 23 s
Bas (24 h): 0%
Eos (24 h): 0.8%
Fbg (24 h): 295.6 mg/dL
Hb (24 h): 12.9 g/dL
Ht (24 h): 39.9%
Lym (24 h): 88.4%
MCHC (24 h): 32.2%
Mono (24 h): 3.4%
Neu (24 h): 6.6%
PT (24 h): 16.1 s
Plat (24 h): 125 x10_4/uL
RBC (24 h): 639.8 x10_4/ul
Ret (24 h): 4.5%
WBC (24 h): 72.2 x10_2/uL
KIDNEY_L (24 h): 0.9 g
KIDNEY_R (24 h): 1 g
KIDNEY_TOTAL (24 h): 1.9 g
LIVER (24 h): 9.3 g
ALP (24 h): 1504.2 IU/L
ALT (24 h): 44.8 IU/L
AST (24 h): 72.8 IU/L
CRE (24 h): 0.2 mg/dL
DBIL (24 h): 0.002 mg/dL
GLC (24 h): 179.6 mg/dL
IP (24 h): 8.1 mg/dL
K (24 h): 4.3 meq/L
LDH (24 h): 211.2 IU/L
Na (24 h): 139.8 meq/L
PL (24 h): 126.6 mg/dL
RALB (24 h): 3 g/dL
TBIL (24 h): 0.02 mg/dL
TC (24 h): 70.4 mg/dL
TG (24 h): 60.4 mg/dL
